Assay results as given in patent US8592458B2 (priority 2005, dated 2013).
Structures can show the parent of a compound that is named as a salt. Where two headings read alike, the source gives them in different places.

What was measured:
α7 nAChR = α7 nAChR (Rattus norvegicus, UniProt Q05941); assay type: binding; conditions: for RELATIVE A7/A4B2 SELECTIVITY / Ki: rat brain membranes; for RELATIVE A7/A4B2 SELECTIVITY: Ki alpha4beta2 / Ki alpha7, divided by the alpha7 selectivity of DMXBA (1.95), DMXBA set to 1.00; for Ki α4β2/α7 Ratio: alpha7 selectivity, not normalized with respect to DMXBA selectivity; for Ki: [125I]alpha-bungarotoxin, n = 2
Chain of α7 nAChR (Q05941 23-502): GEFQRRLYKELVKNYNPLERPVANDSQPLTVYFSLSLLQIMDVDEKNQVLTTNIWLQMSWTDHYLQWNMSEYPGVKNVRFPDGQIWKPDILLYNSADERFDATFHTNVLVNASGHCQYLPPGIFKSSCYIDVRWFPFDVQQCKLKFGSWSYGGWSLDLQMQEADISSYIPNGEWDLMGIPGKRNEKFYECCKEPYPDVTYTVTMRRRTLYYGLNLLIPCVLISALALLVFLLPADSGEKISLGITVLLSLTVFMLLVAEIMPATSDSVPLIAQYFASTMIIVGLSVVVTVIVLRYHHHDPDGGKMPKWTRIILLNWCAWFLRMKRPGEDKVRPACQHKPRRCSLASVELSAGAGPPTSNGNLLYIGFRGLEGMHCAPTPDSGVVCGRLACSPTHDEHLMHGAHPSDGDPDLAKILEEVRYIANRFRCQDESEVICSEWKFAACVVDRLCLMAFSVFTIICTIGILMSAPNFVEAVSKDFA

[1] = Spectrophotometric pKa determination of the imine nitrogen; assay type: physicochemical; conditions: for % ionized: percent ionization at pH 7.4
Method: Thirteen different pH values in the titration region were evaluated (pH: 4, 5, 6, 7, 7.2, 7.5, 7.8, 8, 8.2, 8.5, 8.8, 9, 10). A specific concentration of 3-benzylidene-3-arylidene-anabaseine compound, 1.3×10^−3 M, was added to the potassium phosphate buffers at varied pH values. Each tube was then vortexed and immediately read in a Beckman spectrophotometer. The same glass cuvette was used with every sample. The glass cuvette was thoroughly rinsed with distilled deionized water between different pH samples. The wavelength scan was set to a range of 250-600 nm. The pH with the highest change in absorbance was determined. The wavelength at the highest change in absorbance and the absorbance values for all of the different pH samples at this wavelength were entered into the Enzfitter software (Elsevier-Biosoft, Cambridge, UK) in order to estimate each pKa value.

α4β2 nAChR = α4β2 nAChR (Rattus norvegicus, UniProt P09483+P12390); assay: Radioligand binding, displacement of [3H]cytisine from rat brain membranes; conditions: n = 2
Chain of α4β2 nAChR (P09483 31-630): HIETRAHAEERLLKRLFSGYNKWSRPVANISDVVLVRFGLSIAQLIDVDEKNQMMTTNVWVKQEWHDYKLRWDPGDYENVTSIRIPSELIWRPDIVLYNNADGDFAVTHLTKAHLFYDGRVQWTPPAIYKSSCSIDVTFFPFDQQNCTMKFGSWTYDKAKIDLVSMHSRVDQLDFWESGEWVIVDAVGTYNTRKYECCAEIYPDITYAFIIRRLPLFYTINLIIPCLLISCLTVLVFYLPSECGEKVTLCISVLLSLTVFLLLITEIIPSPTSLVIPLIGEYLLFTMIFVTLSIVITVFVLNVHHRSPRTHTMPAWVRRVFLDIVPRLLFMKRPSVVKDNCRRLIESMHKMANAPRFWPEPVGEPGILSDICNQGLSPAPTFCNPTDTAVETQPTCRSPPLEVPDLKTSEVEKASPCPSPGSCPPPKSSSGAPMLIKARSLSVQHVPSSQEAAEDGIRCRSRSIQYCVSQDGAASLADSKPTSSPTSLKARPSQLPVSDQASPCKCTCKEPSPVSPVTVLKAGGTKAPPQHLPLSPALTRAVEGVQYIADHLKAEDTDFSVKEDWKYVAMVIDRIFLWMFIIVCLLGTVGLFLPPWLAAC
Chain of α4β2 nAChR (P12390 25-500): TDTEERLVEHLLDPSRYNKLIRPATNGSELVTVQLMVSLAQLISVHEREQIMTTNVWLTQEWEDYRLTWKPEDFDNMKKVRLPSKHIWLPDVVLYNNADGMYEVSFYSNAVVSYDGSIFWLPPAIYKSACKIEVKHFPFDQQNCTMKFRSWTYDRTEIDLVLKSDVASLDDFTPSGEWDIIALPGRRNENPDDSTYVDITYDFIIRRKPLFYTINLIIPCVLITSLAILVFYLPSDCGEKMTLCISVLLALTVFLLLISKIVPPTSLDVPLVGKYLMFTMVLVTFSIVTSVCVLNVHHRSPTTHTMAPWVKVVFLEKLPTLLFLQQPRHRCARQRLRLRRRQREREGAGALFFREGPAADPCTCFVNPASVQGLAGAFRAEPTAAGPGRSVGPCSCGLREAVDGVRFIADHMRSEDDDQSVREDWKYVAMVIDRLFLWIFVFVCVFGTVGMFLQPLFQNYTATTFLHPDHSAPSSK
Method: Assays were performed using the experimental compound to compete for its nAChR binding site with a radioligand that specifically labels either the α4β2 or the α7 nAChR in homogenized Sprague-Dawley rat brain membrane. These assays were used to determine the IC50 of the experimental compounds, which is then used to determine the KI with the Cheng-Prusoff equation.
The 3-arylidene-anabaseine compound was suspended in 50 mM Tris binding saline, with 2 mg/ml BSA, if it was a salt, or in methanol if it was a free base, and dilutions were made in 2 mg/ml BSA Tris binding saline. The final solutions were incubated at 37° C. for approximately 2.5 hours. Once the reaction was assumed to be at equilibrium, it was stopped by harvesting the tissue onto GF/C filters, which were soaked for 45 minutes in a 0.5% polyethylenamine solution to reduce non-specific binding of the radioligand to the filter, using a Brandel tissue harvester. The filters were then placed in gamma tubes and counted on a Beckman counter for 5 minutes per sample. The counts per minute were then assessed, the results were entered, and the IC50s and KIs were determined using the software program Graphpad Prism®. The [^3H]cytisine experiments were performed in a similar manner. First the addition of all of the components: 1 nM [^3H]cytisine, 3-benzylidene-3-arylidene-anabaseine compound (5 nM-50 μM), 0.2 mg rat brain homogenate, and 2 mg/ml BSA Tris solution at a pH of 7.4 to bring the final volume up to 0.5 ml in each tube.
To assess non-specific binding, 1 mM nicotine was added in place of the 3-arylidene-anabaseine. To assess total binding, only the radioligand, tissue, and BSA Tris solution were added. The incubation time and the temperature were altered in this protocol to produce the greatest difference between total and non-specific binding and to maximize the affinity of the radioligand for the receptor, respectively. The incubation time for [^3H]cytisine was 4 hours at 4° C. […] The counts per minute were entered into GraphPad Prism® where the IC50s and the KIs were assessed.
Rat brain membrane was obtained frozen from Pel-Freez Biologicals (Rogers, Ariz.). The protein concentration of the rat brain homogenate was assessed using the bicinchoninic acid (BCA) protein assay kit from Pierce (Rockford, Ill.).
Displacement of ^125I-labelled alpha-bungarotoxin (BTX) measured binding to alpha7 receptors; displacement of [^3H]-labelled cytisine measured binding to alpha4beta2 receptors. […] Nonspecific binding of each radioligand was measured in the presence of 1.0 mM nicotine. […] Bound [3H] […] was measured in a liquid scintillation counter, whereas [125]BTX was measured with use of a Biogamma counter (both from Beckman Coulter).

[2] = Octanol/water partition coefficient by RP-HPLC; assay type: physicochemical; conditions: 1-octanol/sodium phosphate buffer; 1-octanol / 10 mM sodium phosphate buffer pH 7.4 with 150 mM NaCl, corrected for ionization
Method: P is the ratio of the concentration of an un-ionized form of a compound in octanol relative to the unionized concentration of the compound in an aqueous phase containing 150 mM NaCl (to approximate physiological conditions), after the two phases have equilibrated. Log P values were determined for each test compound by RP-HPLC analysis. Approximately 1 mg of each compound was weighed out and placed in equal volumes, 3 ml 10 mM sodium phosphate buffer, pH 7.4, which contained 150 mM NaCl, and 1-octanol. Previously, equal volumes of the sodium phosphate buffer and 1-octanol were added to a separatory funnel and allowed to equilibrate overnight. The equilibrated sodium phosphate buffer was checked prior to its addition to the compound for a pH of 7.4. Once these phases were added to the weighed compound, the solutions were allowed to equilibrate overnight on a gentle shaker at room temperature. The samples were centrifuged at […] for 5 minutes and octanol phase carefully removed with a Pasteur pipette. The pH of the water phase was remeasured in order to calculate the corrected Log P value.
Since large concentrations of octanol cannot be directly injected into the HPLC without affecting the elution of the compound being measured, the compound was extracted from the separated octanol phase with an acidic 150 mM NaCl solution adjusted to a pH of approximately 2.6 (with 100 mM glacial acetic acid). The acidic saline solution was allowed to gently mix with the octanol phase for 20 minutes on a shaker at room temperature. The samples containing the octanol and acidic saline phases were then centrifuged at 1,000×g for 5 minutes and the upper octanol phase was carefully removed with a Pasteur pipette. This back extraction step was repeated at least two and sometimes three times. All three or four back extracted solutions for a particular compound were then combined. Both the original aqueous and the back extracted octanol phases were then diluted with 50 mM ammonium acetate buffer, pH 4.5. The diluted samples were then transferred by pipette to autosampler tubes and subsequently […] of each diluted sample was injected into the HPLC. The area under the curve (AUC) of an absorbance peak was determined for samples from both (octanol and aqueous) of the original phases. Taking into account the dilutions of each sample phase during its preparation for HPLC determination, Log P (taking into consideration the percent ionization at pH 7.4) was then calculated.

[3] = imine nitrogen, room temperature, 50 mM potassium phosphate buffer, 150 mM NaCl

4′-Methyl-DMXBA
RELATIVE A7/A4B2 SELECTIVITY (α7 nAChR): 14.8

COc1ccc2cc(/C=C3\CCCN=C3c3cccnc3)ccc2c1 (as salt: hydrochloride) [3-[(6-Methoxy-naphth-2-yl)-methylene]-anabaseine dihydrochloride]
melting point: 223 to 226 °C

CC1CCN=C(c2cccnc2)C1 (racemic) [(S,R)-4-Methyl-Anabaseine, 4-Methyl-anabaseine]
RELATIVE A7/A4B2 SELECTIVITY (α7 nAChR): 0.69

COc1ccc(C=C2C(c3cccnc3)=NCCC2C)c(OC)c1 (racemic) [(S,R)-4-Methyl-DMXBA, 3-(2,4-dimethoxybenzylidene)-(4-methyl)-3,4,5,6-tetrahydro-2,3′-bipyridine]
RELATIVE A7/A4B2 SELECTIVITY (α7 nAChR): 4.10

CC1CCC(c2cccnc2)=NC1 (racemic) [(S,R)-5-Methyl-Anabaseine, 5-Methyl-Anabaseine]
RELATIVE A7/A4B2 SELECTIVITY (α7 nAChR): 0.38

COc1ccc(C=C2CC(C)CN=C2c2cccnc2)c(OC)c1 (racemic) [(S,R)-5-Methyl-DMXBA, 3-(2,4-dimethoxybenzylidene)-(5-methyl)-3,4,5,6-tetrahydro-2,3′-bipyridine]
RELATIVE A7/A4B2 SELECTIVITY (α7 nAChR): 1.31

CC1CCCC(c2cccnc2)=N1 (racemic) [(S,R)-6-Methyl-Anabaseine, 6-methyl-anabaseine]
RELATIVE A7/A4B2 SELECTIVITY (α7 nAChR): 1.19

COc1ccc(C=C2CCC(C)N=C2c2cccnc2)c(OC)c1 (racemic) [(S,R)-6-Methyl-DMXBA, 3-(2,4-dimethoxybenzylidene)-(6-methyl)-3,4,5,6-tetrahydro-2,3′-bipyridine]
RELATIVE A7/A4B2 SELECTIVITY (α7 nAChR): 3.67

COc1cc(O[C@@H]2O[C@H](C(=O)O)[C@@H](O)[C@H](O)[C@H]2O)ccc1C=C1CCCN=C1c1cccnc1 [3-(4-Beta-Glucuronidyl-2-methoxyB)A, 3-(4-Glucuronido-2-methoxybenzylidene)-anabaseine]
RELATIVE A7/A4B2 SELECTIVITY (α7 nAChR): 9.40

C(=C1/CCCN=C1c1cccnc1)/c1ccc2c(c1)OCCO2 [3-[3,4-(Ethylenedioxy)benzylidene]-anabaseine]
pKa [1, 3]: 7.56 ± 0.03 | % ionized [1]: 59.11% | Ki α4β2/α7 Ratio (α7 nAChR): 2.60 | Ki (α7 nAChR): 0.2 ± 0.01 µM | Ki (α4β2 nAChR): 0.52 ± 0.01 µM | logP [2]: 3.1

C(=C1/CCCN=C1c1cccnc1)/c1ccc2c(c1)OCO2 [3-[3,4-(Methylenedioxy)benzylidene]-anabaseine]
pKa [1, 3]: 7.64 ± 0.04 | % ionized [1]: 63.48% | Ki α4β2/α7 Ratio (α7 nAChR): 3.04 | Ki (α7 nAChR): 0.23 ± 0.002 µM | Ki (α4β2 nAChR): 0.7 ± 0.07 µM | logP [2]: 2.43

COc1ccc2cc(/C=C3\CCCN=C3c3cccnc3)ccc2c1 [3-[(6-Methoxy-naphth-2-yl)-methylene]-anabaseine dihydrochloride]
pKa [1, 3]: 7.29 ± 0.12 | % ionized [1]: 43.67% | Ki α4β2/α7 Ratio (α7 nAChR): 1.62 | Ki (α7 nAChR): 0.37 ± 0.03 µM | Ki (α4β2 nAChR): 0.6 ± 0.1 µM | logP [2]: 2.65

C(=C1/CCCN=C1c1cccnc1)/c1cc2ccccc2o1 [3-[(Benzofuran-2-yl)methylene]-anabaseine]
PKa [1, 3]: 9/2/04 | % ionized [1]: 33.90% | Ki α4β2/α7 Ratio (α7 nAChR): 39.5 | Ki (α7 nAChR): 0.15 ± 0.003 µM | Ki (α4β2 nAChR): 5.92 ± 1.06 µM | logP [2]: 3.86 ± 0.4

c1cncc(C2=NCCCC2)c1 [Anabaseine, reference compound]
RELATIVE A7/A4B2 SELECTIVITY (α7 nAChR): 0.69

COc1ccc(/C=C2\CCCN=C2c2cccnc2)c(OC)c1 [DMXBA (GTS-21), (E)-3-(2,4-dimethoxybenzylidene)-3,4,5,6-tetrahydro-2,3′-bipyridine, reference compound]
RELATIVE A7/A4B2 SELECTIVITY (α7 nAChR): 1.00

COc1ccc(C=C2C(c3cccnc3)=NCCC2C)c(OC)c1 (stereo not drawn) [Least selective enantiomer of 4-Methyl-DMXBA, 3-(2,4-dimethoxybenzylidene)-(4-methyl)-3,4,5,6-tetrahydro-2,3′-bipyridine]
RELATIVE A7/A4B2 SELECTIVITY (α7 nAChR; listed as 4-methyl-DMXBA enantiomer which had a longer retention time): 1.28

COc1ccc(C=C2CC(C)CN=C2c2cccnc2)c(OC)c1 (stereo not drawn) [Least selective enantiomer of 5-Methyl-DMXBA, 3-(2,4-dimethoxybenzylidene)-(5-methyl)-3,4,5,6-tetrahydro-2,3′-bipyridine]
RELATIVE A7/A4B2 SELECTIVITY (α7 nAChR): 1.03

COc1ccc(C=C2CCC(C)N=C2c2cccnc2)c(OC)c1 (stereo not drawn) [Least selective enantiomer of 6-Methyl-DMXBA, 3-(2,4-dimethoxybenzylidene)-(6-methyl)-3,4,5,6-tetrahydro-2,3′-bipyridine]
RELATIVE A7/A4B2 SELECTIVITY (α7 nAChR): 2.93

COc1ccc(C=C2C(c3cccnc3)=NCCC2C)c(OC)c1 (stereo not drawn) [Most selective enantiomer of 4-Methyl-DMXBA, 3-(2,4-dimethoxybenzylidene)-(4-methyl)-3,4,5,6-tetrahydro-2,3′-bipyridine]
RELATIVE A7/A4B2 SELECTIVITY (α7 nAChR): 8.34 | relative alpha7 nAChR (versus alpha4beta2) receptor binding selectivity, higher than that of the other enantiomer (α7 nAChR; rat brain nAChR, compared with the other enantiomer): 6.5 fold

COc1ccc(C=C2CC(C)CN=C2c2cccnc2)c(OC)c1 (stereo not drawn) [Most selective enantiomer of 5-Methyl-DMXBA, 3-(2,4-dimethoxybenzylidene)-(5-methyl)-3,4,5,6-tetrahydro-2,3′-bipyridine]
RELATIVE A7/A4B2 SELECTIVITY (α7 nAChR): 2.34

COc1ccc(C=C2CCC(C)N=C2c2cccnc2)c(OC)c1 (stereo not drawn) [Most selective enantiomer of 6-Methyl-DMXBA, 3-(2,4-dimethoxybenzylidene)-(6-methyl)-3,4,5,6-tetrahydro-2,3′-bipyridine]
RELATIVE A7/A4B2 SELECTIVITY (α7 nAChR): 5.34
